{"source": "patent US6492174B1", "about": "“Methods of initiating embryogenic cultures in plants” (Institute of Paper Science & Technology, priority 2000, dated 2002)", "type_in_all_cases": "cell-based", "key": {"[1]": {"tested_on": "Norway spruce zygotic embryos", "experiment": "Norway spruce initiation after ABA pre-treatment of seed or explant, ten weeks", "protocol": "In this Example, various ABA pre-treatment methods are compared.\nExplants were zygotic embryos flipped out of the megagametophyte, prepared as in Example 1. The experiment consisted of four replications, with a replication consisting of ten explants in a single petri dish. Explants were cultured on solid media lacking ABA.\nThe treatments were designed to investigate the effects of pre-treating the whole seed compared to treating the explant (i.e. the embryo and megagametophyte) after their removal from the seed. It is presumed that soaking a whole seed will result in less ABA uptake by the megagametophyte and embryo than soaking them directly in ABA due to their being surrounded by seed tissue. Two treatments also compared the effect of the pH of the ABA solution. In Treatment #1, the control, seeds were soaked in water for 24 hours, and then explants were prepared as in Example 1. In Treatment #2, seeds were soaked in 5 ppm ABA for 24 hours prior to explant removal. In Treatment #3, seeds were soaked in 20 ppm ABA for 24 hours prior to explant removal. In Treatment #4, seeds were soaked in water for 24 hours and then the explants were removed and soaked in a 5 ppm ABA solution of pH 4.5 for 30 minutes. In Treatment #5 seeds were soaked in water for 24 hours and then the explants were removed and soaked in a 5 ppm ABA solution of pH 5.5 for 30 minutes. After ten weeks, the explants were examined and the frequency of embryogenic culture initiation was scored (Table 44)."}, "[2]": {"tested_on": "Loblolly pine megagametophytes", "experiment": "Loblolly pine extrusion and initiation on solid media #945 with brassinolide, eight weeks", "protocol": "In each replicate set of ten explants, the frequency of extrusion was measured as the number of extrusions per ten megagametophytes. A successful extrusion was scored where a filamentous mass of tissue that had emerged from the megagametophyte was clearly visible. Initiation was also scored at the end of the 8th week. In each replicate set of ten explants, the frequency of initiation was recorded as the number of successful initiations out of the ten megagametophytes. A successful initiation was scored where the extruded tissue had clearly proliferated and at least one somatic embryo was visible. Often, visualization was aided by the fact that the zygotic tissue was brownish while new somatic embryos were whitish and translucent. Also, somatic embryos could often be seen growing directly from zygotic embryos.\nThis experiment measured the effects of varying concentrations of brassinolide on extrusion and initiation in Loblolly pine. The explants in this experiment were megagametophytes isolated from cone collections from four open-pollinated trees, representing a multiplicity of genotypes. The seeds contained Stage 2-4 zygotic embryos. Seeds were sterilized as described in Example 1. Seed coats were split and the megagametophytes were isolated by removing integuments and nucellus. Isolated megagametophytes were placed on solid media. […] The treatment media consisted of media #945 with added brassinolide varying from 0.005 to 0.1 μM (Table 10). The experiment consisted of three replications per treatment, per genotype.\nInitiation frequency was increased by the addition of brassinolide at all concentrations (Table 12). There was no clear concentration effect within the tested range. […] One of skill in the art could empirically determine the upper and lower effective concentration of brassinolide which is effective in promoting initiation."}, "[3]": {"tested_on": "rice (Oryza sativa) cultivar Taipei 309 dehulled seeds", "experiment": "Rice embryogenic callus diameter on MS media with 2.0 mg/l 2,4-D, two weeks", "details": "for Callus Diameter (mm) + (std. error): two weeks", "from_the_text": "In this experiment, brassinolide and elevated atmospheric pressure improved the initiation of embryogenic cultures in rice (Oryza sativa). Rice, an annual angiosperm, is quite taxonomically distant from the conifers used in previous examples. However, as this example makes clear, brassinosteroids and elevated atmospheric pressure effectively increase embryogenic culture initiation of in a wide variety of species.\nIn this experiment, four initiation treatments were studied, using explants from mature Japaonica rice seeds (cultivar Taipei 309). The explants were dehulled sterilized seeds. About 400 mature seeds were dehulled and surface sterilized in a 5.25% bleach solution for 25 minutes and then rinsed three times with sterile deionized water. About 70 explants were placed into each of four treatment petri dishes containing solid media. The explants were placed with the embryo side up. The basal media was a Murashige and Skoog (MS) media containing 2.0 mg/l 2,4-D. Plates were wrapped in PARAFILM and cultured in the dark at 27° for two weeks.\nTreatment 1, the control treatment, consisted of the above-described basal media, contained no brassinolide, and was cultured at atmospheric pressure. Treatment 2 contained the basal media and was cultured at 1.5 atm of pressure. Treatment 3 contained basal to which 0.1 μM brassinolide was added and was cultured at normal atmospheric pressure. Treatment 4 contained basal media to which 1 μM brassinolide was added and was cultured at atmospheric pressure.\nAfter two weeks, embryogenic callus had developed on most of the explants. The embryogenic callus formed in spherical formations around the embryo. During culture, the scutellum elongated and the embryogenic calli formed masses around the base of the scutellum, covering and obscuring the rest of the embryo. Initiation was scored by measuring the diameter of the embrygenic callus on each explant. A larger callus contains more somatic embryos and thus has a greater potential to supply viable embryos for subsequent regeneration of whole plants. Callus size was measured by observing callus under a dissecting scope fitted with an ocular measurement device allowing accurate measurements to 0.1 mm."}}}
{"smiles": "CC1=CC(=O)CC(C)(C)C1(O)/C=C/C(C)=C\\C(=O)O", "note": "(stereo not drawn) [ABA, 5-(1-hydroxy-2,6,6,-trimethyl-4-oxo-2-cyclohexen-1-yl)-3-methyl-2,4-penta dienoic acid]", "values": [{"measurement": "% Initiating (std. error)", "setting": "[1]; explant soaked in 5 ppm ABA (pH 4.5), 30 minutes", "result": "31.2 (12.2) %"}, {"measurement": "% Initiating (std. error)", "setting": "[1]; explant soaked in 5 ppm ABA (pH 5.5), 30 minutes", "result": "22.0 (3.0) %"}, {"measurement": "% Initiating (std. error)", "setting": "[1]; seed soaked in 5 ppm ABA, 24 hours", "result": "15.1 (6.6) %"}, {"measurement": "% Initiating (std. error)", "setting": "[1]; seed soaked in 20 ppm ABA, 24 hours", "result": "24.0 (5.4) %"}]}
{"smiles": "CC(C)[C@H](C)[C@@H](O)[C@H](O)[C@@H](C)[C@H]1CC[C@H]2[C@@H]3COC(=O)[C@H]4C[C@H](O)[C@H](O)C[C@]4(C)[C@H]3CC[C@]12C", "note": "[brassinolide]", "values": [{"measurement": "Initiation frequency vs control", "setting": "[2]; brassinolide at all concentrations (0.005 to 0.1 μM)", "result": "increased"}, {"measurement": "% of Megagametophytes Extruding", "setting": "[2]; genotype FC, 0.005 μM Br", "result": "40.0 (5.8) %"}, {"measurement": "% of Megagametophytes Initiating", "setting": "[2]; genotype FC, 0.005 μM Br", "result": "0 (0) %"}, {"measurement": "% of Megagametophytes Extruding", "setting": "[2]; genotype FC, 0.01 μM Br", "result": "20.0 (5.8) %"}, {"measurement": "% of Megagametophytes Initiating", "setting": "[2]; genotype FC, 0.01 μM Br", "result": "6.7 (3.3) %"}, {"measurement": "% of Megagametophytes Extruding", "setting": "[2]; genotype FC, 0.025 μM Br", "result": "40.0 (5.8) %"}, {"measurement": "% of Megagametophytes Initiating", "setting": "[2]; genotype FC, 0.025 μM Br", "result": "0 (0) %"}, {"measurement": "% of Megagametophytes Extruding", "setting": "[2]; genotype FC, 0.05 μM Br", "result": "26.7 (3.3) %"}, {"measurement": "% of Megagametophytes Initiating", "setting": "[2]; genotype FC, 0.05 μM Br", "result": "0 (0) %"}, {"measurement": "% of Megagametophytes Extruding", "setting": "[2]; genotype FC, 0.1 μM Br", "result": "31.8 (16.5) %"}, {"measurement": "% of Megagametophytes Initiating", "setting": "[2]; genotype FC, 0.1 μM Br", "result": "3.7 (3.7) %"}, {"measurement": "% of Megagametophytes Extruding", "setting": "[2]; genotype FT, 0.005 μM Br", "result": "96.7 (3.3) %"}, {"measurement": "% of Megagametophytes Initiating", "setting": "[2]; genotype FT, 0.005 μM Br", "result": "53.3 (12.0) %"}, {"measurement": "% of Megagametophytes Extruding", "setting": "[2]; genotype FT, 0.01 μM Br", "result": "86.7 (8.8) %"}, {"measurement": "% of Megagametophytes Initiating", "setting": "[2]; genotype FT, 0.01 μM Br", "result": "43.3 (16.7) %"}, {"measurement": "% of Megagametophytes Extruding", "setting": "[2]; genotype FT, 0.025 μM Br", "result": "93.3 (6.7) %"}, {"measurement": "% of Megagametophytes Initiating", "setting": "[2]; genotype FT, 0.025 μM Br", "result": "46.7 (12.0) %"}, {"measurement": "% of Megagametophytes Extruding", "setting": "[2]; genotype FT, 0.05 μM Br", "result": "93.3 (3.3) %"}, {"measurement": "% of Megagametophytes Initiating", "setting": "[2]; genotype FT, 0.05 μM Br", "result": "53.3 (8.8) %"}, {"measurement": "% of Megagametophytes Extruding", "setting": "[2]; genotype FT, 0.1 μM Br", "result": "86.7 (3.3) %"}, {"measurement": "% of Megagametophytes Initiating", "setting": "[2]; genotype FT, 0.1 μM Br", "result": "50 (3.3) %"}, {"measurement": "% of Megagametophytes Extruding", "setting": "[2]; genotype FW, 0.005 μM Br", "result": "83.3 (8.8) %"}, {"measurement": "% of Megagametophytes Initiating", "setting": "[2]; genotype FW, 0.005 μM Br", "result": "20 (5.8) %"}, {"measurement": "% of Megagametophytes Extruding", "setting": "[2]; genotype FW, 0.01 μM Br", "result": "50.0 (10.0) %"}, {"measurement": "% of Megagametophytes Initiating", "setting": "[2]; genotype FW, 0.01 μM Br", "result": "3.3 (3.3) %"}, {"measurement": "% of Megagametophytes Extruding", "setting": "[2]; genotype FW, 0.025 μM Br", "result": "64.8 (13.4) %"}, {"measurement": "% of Megagametophytes Initiating", "setting": "[2]; genotype FW, 0.025 μM Br", "result": "20.7 (11.6) %"}, {"measurement": "% of Megagametophytes Extruding", "setting": "[2]; genotype FW, 0.05 μM Br", "result": "70.0 (11.5) %"}, {"measurement": "% of Megagametophytes Initiating", "setting": "[2]; genotype FW, 0.05 μM Br", "result": "13.3 (8.8) %"}, {"measurement": "% of Megagametophytes Extruding", "setting": "[2]; genotype FW, 0.1 μM Br", "result": "73.3 (8.8) %"}, {"measurement": "% of Megagametophytes Initiating", "setting": "[2]; genotype FW, 0.1 μM Br", "result": "30 (5.8) %"}, {"measurement": "% of Megagametophytes Extruding", "setting": "[2]; genotype FX, 0.005 μM Br", "result": "53.3 (8.8) %"}, {"measurement": "% of Megagametophytes Initiating", "setting": "[2]; genotype FX, 0.005 μM Br", "result": "26.7 (8.8) %"}, {"measurement": "% of Megagametophytes Extruding", "setting": "[2]; genotype FX, 0.01 μM Br", "result": "63.3 (14.5) %"}, {"measurement": "% of Megagametophytes Initiating", "setting": "[2]; genotype FX, 0.01 μM Br", "result": "33.3 (12.0) %"}, {"measurement": "% of Megagametophytes Extruding", "setting": "[2]; genotype FX, 0.025 μM Br", "result": "70.0 (5.8) %"}, {"measurement": "% of Megagametophytes Initiating", "setting": "[2]; genotype FX, 0.025 μM Br", "result": "23.3 (3.3) %"}, {"measurement": "% of Megagametophytes Extruding", "setting": "[2]; genotype FX, 0.05 μM Br", "result": "73.3 (8.8) %"}, {"measurement": "% of Megagametophytes Initiating", "setting": "[2]; genotype FX, 0.05 μM Br", "result": "43.3 (6.7) %"}, {"measurement": "% of Megagametophytes Extruding", "setting": "[2]; genotype FX, 0.1 μM Br", "result": "76.7 (8.8) %"}, {"measurement": "% of Megagametophytes Initiating", "setting": "[2]; genotype FX, 0.1 μM Br", "result": "36.7 (8.8) %"}, {"measurement": "concentrations at which brassinolide was effectively used", "setting": "[2]; in our media", "result": "0.005 to 0.25", "unit": "µM"}, {"measurement": "% of Megagametophytes Extruding", "setting": "[2]; total, 0.005 μM Br", "result": 68.3, "unit": "%"}, {"measurement": "% of Megagametophytes Initiating", "setting": "[2]; total, 0.005 μM Br", "result": 25.0, "unit": "%"}, {"measurement": "% of Megagametophytes Extruding", "setting": "[2]; total, 0.01 μM Br", "result": 55.0, "unit": "%"}, {"measurement": "% of Megagametophytes Initiating", "setting": "[2]; total, 0.01 μM Br", "result": 21.7, "unit": "%"}, {"measurement": "% of Megagametophytes Extruding", "setting": "[2]; total, 0.025 μM Br", "result": 67.0, "unit": "%"}, {"measurement": "% of Megagametophytes Initiating", "setting": "[2]; total, 0.025 μM Br", "result": 22.7, "unit": "%"}, {"measurement": "% of Megagametophytes Extruding", "setting": "[2]; total, 0.05 μM Br", "result": 65.8, "unit": "%"}, {"measurement": "% of Megagametophytes Initiating", "setting": "[2]; total, 0.05 μM Br", "result": 27.5, "unit": "%"}, {"measurement": "% of Megagametophytes Extruding", "setting": "[2]; total, 0.1 μM Br", "result": 67.1, "unit": "%"}, {"measurement": "% of Megagametophytes Initiating", "setting": "[2]; total, 0.1 μM Br", "result": 30.1, "unit": "%"}, {"measurement": "average callus size vs control", "setting": "[3]; 0.1 μM brassinolide", "result": "significantly increased"}, {"measurement": "average callus size vs control", "setting": "[3]; 1.0 μM brassinolide", "result": "did not increase callus size"}, {"measurement": "Callus Diameter (mm) + (std. error)", "setting": "[3]; +0.1 μM Brassinolide", "result": "4.70 (0.13) mm"}, {"measurement": "Callus Diameter (mm) + (std. error)", "setting": "[3]; +1.0 μM Brassinolide", "result": "4.19 (0.12) mm"}]}
